Values belong to the compound of their own block, whether it stands above or below them.
Legend:
Assay in all cases: radiometric filter-binding kinase assay
HIPK1 (human) = HIPK1 (human) (UniProt Q86Z02)
MAPK15 (human) = MAPK15 (human) (UniProt Q8TD08)
MAP2K6 (human) = MAP2K6 (human) (UniProt P52564)
CSK (human) = CSK (human) (UniProt P41240)
PAK7 (human) = PAK7 (human) (UniProt Q9P286)
FGFR1 (human) = FGFR1 (human) (UniProt P11362)
BTK (human) = BTK (human) (UniProt Q06187)
[1] = tested on: AKT1 (human), P31749 [S473D]
MAPK1 (human) = MAPK1 (human) (UniProt P28482)
TBK1 (human) = TBK1 (human) (UniProt Q9UHD2)
MAP3K5 (human) = MAP3K5 (human) (UniProt Q99683)
BRSK2 (human) = BRSK2 (human) (UniProt Q8IWQ3)
MAPK3 (human) = MAPK3 (human) (UniProt P27361)
HIPK3 (human) = HIPK3 (human) (UniProt Q9H422)
MKNK2 (human) = MKNK2 (human) (UniProt Q9HBH9)
RPS6KA5 KD1 KD2 (human) = RPS6KA5 KD1 KD2 (human) (UniProt O75582)
MAPK9 (human) = MAPK9 (human) (UniProt P45984)
SRPK1 (human) = SRPK1 (human) (UniProt Q96SB4)
EPHA4 (human) = EPHA4 (human) (UniProt P54764)
BRSK1 (human) = BRSK1 (human) (UniProt Q8TDC3)
MAP2K2 (human) = MAP2K2 (human) (UniProt P36507)
EEF2K (human) = EEF2K (human) (UniProt O00418)
NEK6 (human) = NEK6 (human) (UniProt Q9HC98)
RPS6KA3 KD1 KD2 (human) = RPS6KA3 KD1 KD2 (human) (UniProt P51812)
PLK1 (human) = PLK1 (human) (UniProt P53350)
AURKA (human) = AURKA (human) (UniProt O14965)
MAPK8 (human) = MAPK8 (human) (UniProt P45983)
MAP3K1 (human) = MAP3K1 (human) (UniProt Q13233)
IKBKB (human) = IKBKB (human) (UniProt O14920)
GSK3B (human) = GSK3B (human) (UniProt P49841)
CSNK1D (human) = CSNK1D (human) (UniProt P48730)
[2] = tested on: PAK2 (human), Q13177 [T402E]
ERBB4 (human) = ERBB4 (human) (UniProt Q15303)
MAPKAPK3 (human) = MAPKAPK3 (human) (UniProt Q16644)
[3] = biological target: STK11 CAB39 STRADA (human) (UniProt Q9Y376+Q7RTN6+Q15831)

Chain of NEK6 (human) (Q9HC98 whole entry, looked up): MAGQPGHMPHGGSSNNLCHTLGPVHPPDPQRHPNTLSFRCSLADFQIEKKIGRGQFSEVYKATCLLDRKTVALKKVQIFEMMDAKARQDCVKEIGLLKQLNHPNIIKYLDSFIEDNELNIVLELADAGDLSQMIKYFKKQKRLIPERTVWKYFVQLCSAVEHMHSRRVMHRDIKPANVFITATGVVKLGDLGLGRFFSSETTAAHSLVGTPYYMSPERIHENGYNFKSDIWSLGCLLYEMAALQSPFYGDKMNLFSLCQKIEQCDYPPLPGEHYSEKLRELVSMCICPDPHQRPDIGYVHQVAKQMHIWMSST
Chain of HIPK3 (human) (Q9H422 whole entry, looked up): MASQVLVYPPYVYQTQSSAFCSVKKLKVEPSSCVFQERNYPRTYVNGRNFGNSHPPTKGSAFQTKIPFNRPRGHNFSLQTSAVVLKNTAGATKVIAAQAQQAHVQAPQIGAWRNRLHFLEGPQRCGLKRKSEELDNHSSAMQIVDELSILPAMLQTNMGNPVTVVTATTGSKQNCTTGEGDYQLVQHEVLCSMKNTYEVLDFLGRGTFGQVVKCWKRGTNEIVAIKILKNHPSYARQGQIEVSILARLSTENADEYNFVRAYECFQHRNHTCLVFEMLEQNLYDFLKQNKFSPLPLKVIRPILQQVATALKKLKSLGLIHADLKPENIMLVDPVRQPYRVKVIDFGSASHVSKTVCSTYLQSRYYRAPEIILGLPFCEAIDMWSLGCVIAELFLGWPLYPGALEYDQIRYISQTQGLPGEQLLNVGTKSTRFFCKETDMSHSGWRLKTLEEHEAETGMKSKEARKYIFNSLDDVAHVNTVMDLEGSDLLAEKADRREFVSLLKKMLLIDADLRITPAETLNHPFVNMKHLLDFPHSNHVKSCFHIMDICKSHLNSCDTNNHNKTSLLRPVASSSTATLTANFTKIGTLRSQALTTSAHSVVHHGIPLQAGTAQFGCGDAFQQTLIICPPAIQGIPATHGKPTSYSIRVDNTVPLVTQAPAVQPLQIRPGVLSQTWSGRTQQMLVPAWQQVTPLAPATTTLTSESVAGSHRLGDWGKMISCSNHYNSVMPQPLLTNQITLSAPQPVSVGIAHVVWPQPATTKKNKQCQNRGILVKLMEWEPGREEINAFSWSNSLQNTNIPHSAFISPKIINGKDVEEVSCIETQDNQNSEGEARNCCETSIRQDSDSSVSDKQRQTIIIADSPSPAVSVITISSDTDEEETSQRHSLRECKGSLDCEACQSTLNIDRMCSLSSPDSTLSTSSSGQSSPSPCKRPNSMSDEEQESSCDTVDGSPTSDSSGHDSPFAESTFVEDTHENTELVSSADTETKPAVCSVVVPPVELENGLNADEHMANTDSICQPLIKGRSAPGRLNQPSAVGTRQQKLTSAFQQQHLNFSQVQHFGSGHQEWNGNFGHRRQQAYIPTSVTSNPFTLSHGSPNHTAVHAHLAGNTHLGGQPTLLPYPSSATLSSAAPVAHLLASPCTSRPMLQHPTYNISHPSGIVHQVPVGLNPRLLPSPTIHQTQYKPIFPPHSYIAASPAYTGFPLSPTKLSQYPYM
Chain of MAP2K2 (human) (P36507 whole entry, looked up): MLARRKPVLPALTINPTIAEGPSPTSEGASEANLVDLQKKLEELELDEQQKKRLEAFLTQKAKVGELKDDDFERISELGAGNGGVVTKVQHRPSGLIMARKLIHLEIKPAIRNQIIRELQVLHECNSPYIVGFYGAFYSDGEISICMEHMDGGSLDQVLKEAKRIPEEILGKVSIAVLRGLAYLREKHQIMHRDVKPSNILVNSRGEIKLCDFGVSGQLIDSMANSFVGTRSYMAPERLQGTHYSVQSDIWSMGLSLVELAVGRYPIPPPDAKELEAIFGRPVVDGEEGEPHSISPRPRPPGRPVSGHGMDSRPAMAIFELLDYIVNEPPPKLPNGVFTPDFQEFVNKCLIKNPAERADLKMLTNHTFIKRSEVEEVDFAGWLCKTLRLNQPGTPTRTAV
Chain of AKT1 (human), P31749 [S473D] (P31749 whole entry S473D, looked up): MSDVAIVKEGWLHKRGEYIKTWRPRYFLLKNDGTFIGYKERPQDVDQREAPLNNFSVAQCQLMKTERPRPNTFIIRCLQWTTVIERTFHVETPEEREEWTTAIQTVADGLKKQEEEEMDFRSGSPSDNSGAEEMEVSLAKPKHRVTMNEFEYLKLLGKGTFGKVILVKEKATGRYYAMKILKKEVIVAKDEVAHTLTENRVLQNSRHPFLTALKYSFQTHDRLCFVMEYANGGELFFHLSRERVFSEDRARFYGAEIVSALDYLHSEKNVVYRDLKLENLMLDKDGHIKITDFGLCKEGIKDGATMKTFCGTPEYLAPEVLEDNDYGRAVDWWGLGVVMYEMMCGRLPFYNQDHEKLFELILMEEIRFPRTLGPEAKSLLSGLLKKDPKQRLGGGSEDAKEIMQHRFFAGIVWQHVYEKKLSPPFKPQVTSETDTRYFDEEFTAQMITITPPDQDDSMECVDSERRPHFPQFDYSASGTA
Chain of EEF2K (human) (O00418 whole entry, looked up): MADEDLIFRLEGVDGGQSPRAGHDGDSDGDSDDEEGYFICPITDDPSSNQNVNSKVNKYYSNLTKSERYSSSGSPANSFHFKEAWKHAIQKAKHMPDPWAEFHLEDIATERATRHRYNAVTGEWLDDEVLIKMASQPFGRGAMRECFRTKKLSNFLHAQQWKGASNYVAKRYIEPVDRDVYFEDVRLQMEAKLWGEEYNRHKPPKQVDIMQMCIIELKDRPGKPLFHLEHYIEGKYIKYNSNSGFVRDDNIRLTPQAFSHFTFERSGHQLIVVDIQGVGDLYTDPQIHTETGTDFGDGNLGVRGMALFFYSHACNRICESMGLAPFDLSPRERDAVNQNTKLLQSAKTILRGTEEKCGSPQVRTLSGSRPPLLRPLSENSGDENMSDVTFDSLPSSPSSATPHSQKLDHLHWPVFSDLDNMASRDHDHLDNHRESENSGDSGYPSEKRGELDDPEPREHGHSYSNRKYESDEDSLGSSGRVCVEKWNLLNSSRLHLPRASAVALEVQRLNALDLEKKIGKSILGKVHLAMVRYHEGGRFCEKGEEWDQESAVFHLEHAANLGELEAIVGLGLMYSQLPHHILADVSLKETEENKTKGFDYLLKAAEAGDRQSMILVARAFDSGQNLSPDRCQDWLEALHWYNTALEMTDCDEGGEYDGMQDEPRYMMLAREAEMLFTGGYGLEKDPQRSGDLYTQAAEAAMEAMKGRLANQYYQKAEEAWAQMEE
Chain of MKNK2 (human) (Q9HBH9 whole entry, looked up): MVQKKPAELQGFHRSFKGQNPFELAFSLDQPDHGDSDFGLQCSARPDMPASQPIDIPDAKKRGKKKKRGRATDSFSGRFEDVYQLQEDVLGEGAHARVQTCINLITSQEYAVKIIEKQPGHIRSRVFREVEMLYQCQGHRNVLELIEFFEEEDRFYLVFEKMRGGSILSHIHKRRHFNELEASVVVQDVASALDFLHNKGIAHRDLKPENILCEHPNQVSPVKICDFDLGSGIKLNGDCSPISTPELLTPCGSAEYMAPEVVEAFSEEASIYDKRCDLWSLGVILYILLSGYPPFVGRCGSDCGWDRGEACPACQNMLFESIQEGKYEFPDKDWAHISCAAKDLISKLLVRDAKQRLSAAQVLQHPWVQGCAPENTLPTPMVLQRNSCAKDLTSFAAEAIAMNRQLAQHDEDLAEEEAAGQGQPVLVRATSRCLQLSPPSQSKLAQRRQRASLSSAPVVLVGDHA
Chain of ERBB4 (human) (Q15303 whole entry, looked up): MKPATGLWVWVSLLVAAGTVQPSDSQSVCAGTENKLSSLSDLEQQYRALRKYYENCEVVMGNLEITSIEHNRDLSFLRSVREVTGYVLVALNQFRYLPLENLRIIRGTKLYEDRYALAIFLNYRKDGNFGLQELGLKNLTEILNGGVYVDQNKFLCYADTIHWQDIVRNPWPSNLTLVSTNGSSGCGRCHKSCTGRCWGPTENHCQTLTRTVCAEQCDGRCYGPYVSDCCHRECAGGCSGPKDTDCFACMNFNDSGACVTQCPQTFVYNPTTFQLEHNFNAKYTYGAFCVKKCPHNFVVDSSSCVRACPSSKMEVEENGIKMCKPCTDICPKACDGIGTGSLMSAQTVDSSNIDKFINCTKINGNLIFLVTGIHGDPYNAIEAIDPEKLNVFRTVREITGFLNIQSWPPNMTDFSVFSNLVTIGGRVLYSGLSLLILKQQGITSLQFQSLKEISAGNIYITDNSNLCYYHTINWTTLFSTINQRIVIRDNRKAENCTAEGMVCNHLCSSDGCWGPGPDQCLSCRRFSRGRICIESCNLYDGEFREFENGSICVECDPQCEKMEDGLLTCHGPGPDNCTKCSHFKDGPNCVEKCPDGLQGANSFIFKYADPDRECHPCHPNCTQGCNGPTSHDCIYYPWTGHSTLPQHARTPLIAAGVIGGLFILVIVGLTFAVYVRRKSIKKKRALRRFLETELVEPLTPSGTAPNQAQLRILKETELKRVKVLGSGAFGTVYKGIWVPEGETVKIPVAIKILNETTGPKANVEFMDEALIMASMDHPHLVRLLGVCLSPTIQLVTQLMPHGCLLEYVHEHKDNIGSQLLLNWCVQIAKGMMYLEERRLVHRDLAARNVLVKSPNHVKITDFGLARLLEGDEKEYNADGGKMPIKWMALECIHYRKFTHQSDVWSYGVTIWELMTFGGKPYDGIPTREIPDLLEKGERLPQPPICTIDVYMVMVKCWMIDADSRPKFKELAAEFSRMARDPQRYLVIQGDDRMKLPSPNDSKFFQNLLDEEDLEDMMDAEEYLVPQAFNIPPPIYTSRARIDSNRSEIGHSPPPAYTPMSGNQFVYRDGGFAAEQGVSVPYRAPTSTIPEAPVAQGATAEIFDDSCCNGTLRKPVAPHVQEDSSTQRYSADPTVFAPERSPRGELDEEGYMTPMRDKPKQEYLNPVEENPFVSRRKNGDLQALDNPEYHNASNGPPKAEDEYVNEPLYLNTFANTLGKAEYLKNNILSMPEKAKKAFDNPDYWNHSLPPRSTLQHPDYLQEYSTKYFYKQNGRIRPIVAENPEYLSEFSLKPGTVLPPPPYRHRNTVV

- residual activity (HIPK1 (human); compound 0.01 µM): 111%
- residual activity (HIPK1 (human); compound 0.1 µM): 99%
- residual activity (HIPK1 (human); compound 1.0 µM): 95%
- residual activity (MAP2K6 (human); compound 0.01 µM): 59%
- residual activity (MAP2K6 (human); compound 0.1 µM): 21%
- residual activity (MAP2K6 (human); compound 1.0 µM): 20%
- residual activity (CSK (human); compound 0.1 µM): 105%
- residual activity (PAK7 (human); compound 0.01 µM): 102%
- residual activity (PAK7 (human); compound 0.1 µM): 115%
- residual activity (FGFR1 (human); compound 0.01 µM): 118%
- residual activity (FGFR1 (human); compound 0.1 µM): 154%
- residual activity (BTK (human); compound 0.01 µM): 105%
- residual activity (BTK (human); compound 0.1 µM): 115%
- residual activity (BTK (human); compound 1.0 µM): 109%
- residual activity ([1]; compound 0.01 µM): 109%
- residual activity ([1]; compound 0.1 µM): 124%
- residual activity ([1]; compound 1.0 µM): 107%
- residual activity (MAPK1 (human); compound 0.01 µM): 96%
- residual activity (MAPK1 (human); compound 0.1 µM): 87%
- residual activity (MAPK1 (human); compound 1.0 µM): 36%
- residual activity (TBK1 (human); compound 0.01 µM): 110%
- residual activity (TBK1 (human); compound 0.1 µM): 112%
- residual activity (TBK1 (human); compound 1.0 µM): 93%
- residual activity (MAP3K5 (human); compound 0.01 µM): 105%
- residual activity (MAP3K5 (human); compound 0.1 µM): 103%
- residual activity (MAP3K5 (human); compound 1.0 µM): 109%
- residual activity (BRSK2 (human); compound 0.01 µM): 114%
- residual activity (BRSK2 (human); compound 0.1 µM): 93%
- residual activity (BRSK2 (human); compound 1.0 µM): 96%
- residual activity (MAPK3 (human); compound 0.01 µM): 111%
- residual activity (MAPK3 (human); compound 0.1 µM): 102%
- residual activity (MAPK3 (human); compound 1.0 µM): 57%
- residual activity (HIPK3 (human); compound 0.01 µM): 104%
- residual activity (HIPK3 (human); compound 0.1 µM): 100%
- residual activity (HIPK3 (human); compound 1.0 µM): 102%
- residual activity (MKNK2 (human); compound 0.01 µM): 91%
- residual activity (MKNK2 (human); compound 0.1 µM): 62%
- residual activity (MKNK2 (human); compound 1.0 µM): 44%
- residual activity (RPS6KA5 KD1 KD2 (human); compound 0.01 µM): 108%
- residual activity (RPS6KA5 KD1 KD2 (human); compound 0.1 µM): 104%
- residual activity (RPS6KA5 KD1 KD2 (human); compound 1.0 µM): 104%
- residual activity (MAPK9 (human); compound 0.01 µM): 105%
- residual activity (MAPK9 (human); compound 0.1 µM): 106%
- residual activity (MAPK9 (human); compound 1.0 µM): 99%
- residual activity (SRPK1 (human); compound 0.01 µM): 111%
- residual activity (SRPK1 (human); compound 0.1 µM): 95%
- residual activity (SRPK1 (human); compound 1.0 µM): 100%
- residual activity (EPHA4 (human); compound 0.01 µM): 109%
- residual activity (EPHA4 (human); compound 0.1 µM): 122%
- residual activity (EPHA4 (human); compound 1.0 µM): 107%
- residual activity (BRSK1 (human); compound 0.01 µM): 90%
- residual activity (BRSK1 (human); compound 0.1 µM): 90%
- residual activity (BRSK1 (human); compound 1.0 µM): 82%
- residual activity (MAP2K2 (human); compound 0.01 µM): 74%
- residual activity (MAP2K2 (human); compound 0.1 µM): 21%
- residual activity (MAP2K2 (human); compound 1.0 µM): 9%
- residual activity (EEF2K (human); compound 0.01 µM): 91%
- residual activity (EEF2K (human); compound 0.1 µM): 103%
- residual activity (NEK6 (human); compound 0.01 µM): 97%
- residual activity (NEK6 (human); compound 0.1 µM): 90%
- residual activity (NEK6 (human); compound 1.0 µM): 98%
- residual activity (RPS6KA3 KD1 KD2 (human); compound 0.01 µM): 129%
- residual activity (RPS6KA3 KD1 KD2 (human); compound 0.1 µM): 125%
- residual activity (RPS6KA3 KD1 KD2 (human); compound 1.0 µM): 129%
- residual activity (PLK1 (human); compound 0.01 µM): 102%
- residual activity (PLK1 (human); compound 0.1 µM): 107%
- residual activity (PLK1 (human); compound 1.0 µM): 114%
- residual activity (AURKA (human); compound 0.01 µM): 106%
- residual activity (AURKA (human); compound 0.1 µM): 103%
- residual activity (AURKA (human); compound 1.0 µM): 108%
- residual activity (MAPK8 (human); compound 0.01 µM): 104%
- residual activity (MAPK8 (human); compound 0.1 µM): 98%
- residual activity (MAPK8 (human); compound 1.0 µM): 80%
- residual activity (MAP3K1 (human); compound 0.01 µM): 112%
- residual activity (MAP3K1 (human); compound 0.1 µM): 101%
- residual activity (MAP3K1 (human); compound 1.0 µM): 102%
- residual activity (IKBKB (human); compound 0.01 µM): 103%
- residual activity (IKBKB (human); compound 0.1 µM): 100%
- residual activity (IKBKB (human); compound 1.0 µM): 112%
- residual activity (GSK3B (human); compound 0.01 µM): 91%
- residual activity (GSK3B (human); compound 0.1 µM): 106%
- residual activity (CSNK1D (human); compound 0.01 µM): 116%
- residual activity (CSNK1D (human); compound 0.1 µM): 101%
- residual activity ([2]; compound 0.01 µM): 99%
- residual activity ([2]; compound 0.1 µM): 94%
- residual activity ([2]; compound 1.0 µM): 95%
- residual activity (ERBB4 (human); compound 0.1 µM): 104%
- residual activity (ERBB4 (human); compound 1.0 µM): 105%
- residual activity (MAPKAPK3 (human); compound 0.01 µM): 105%
- residual activity (MAPKAPK3 (human); compound 0.1 µM): 99%
- residual activity (MAPKAPK3 (human); compound 1.0 µM): 99%
- residual activity ([3]; compound 0.01 µM): 119%
- residual activity ([3]; compound 0.1 µM): 120%
- residual activity ([3]; compound 1.0 µM): 104%
Structure (SMILES): COc1cc(O)c2c(c1)[C@H]1OC1C[C@H](O)[C@H](O)C(=O)/C=C\C[C@H](C)OC2=O (some centres not stated)
- residual activity (MAPK15 (human); compound 0.01 µM): 80%
- residual activity (MAPK15 (human); compound 0.1 µM): 27%
- residual activity (MAPK15 (human); compound 1.0 µM): 11%

- residual activity (HIPK1 (human); compound 1.0 µM): 104%
- residual activity (HIPK1 (human); compound 10.0 µM): 9%
- residual activity (MAP2K6 (human); compound 1.0 µM): 104%
- residual activity (MAP2K6 (human); compound 10.0 µM): 99%
- residual activity (CSK (human); compound 1.0 µM): 86%
- residual activity (CSK (human); compound 10.0 µM): 100%
- residual activity (PAK7 (human); compound 1.0 µM): 81%
- residual activity (PAK7 (human); compound 10.0 µM): 66%
- residual activity (FGFR1 (human); compound 1.0 µM): 105%
- residual activity (FGFR1 (human); compound 10.0 µM): 61%
- residual activity (BTK (human); compound 1.0 µM): 95%
- residual activity (BTK (human); compound 10.0 µM): 71%
- residual activity ([1]; compound 1.0 µM): 96%
- residual activity ([1]; compound 10.0 µM): 78%
- residual activity (MAPK1 (human); compound 1.0 µM): 96%
- residual activity (MAPK1 (human); compound 10.0 µM): 96%
- residual activity (TBK1 (human); compound 1.0 µM): 87%
- residual activity (TBK1 (human); compound 10.0 µM): 63%
- residual activity (MAP3K5 (human); compound 1.0 µM): 104%
- residual activity (MAP3K5 (human); compound 10.0 µM): 112%
- residual activity (BRSK2 (human); compound 1.0 µM): 92%
- residual activity (BRSK2 (human); compound 10.0 µM): 95%
- residual activity (MAPK3 (human); compound 1.0 µM): 97%
- residual activity (MAPK3 (human); compound 10.0 µM): 78%
- residual activity (HIPK3 (human); compound 1.0 µM): 96%
- residual activity (HIPK3 (human); compound 10.0 µM): 10%
- residual activity (MKNK2 (human); compound 1.0 µM): 94%
- residual activity (MKNK2 (human); compound 10.0 µM): 58%
- residual activity (RPS6KA5 KD1 KD2 (human); compound 1.0 µM): 90%
- residual activity (RPS6KA5 KD1 KD2 (human); compound 10.0 µM): 20%
- residual activity (MAPK9 (human); compound 1.0 µM): 99%
- residual activity (MAPK9 (human); compound 10.0 µM): 85%
- residual activity (SRPK1 (human); compound 1.0 µM): 99%
- residual activity (SRPK1 (human); compound 10.0 µM): 48%
- residual activity (EPHA4 (human); compound 1.0 µM): 103%
- residual activity (EPHA4 (human); compound 10.0 µM): 112%
- residual activity (BRSK1 (human); compound 1.0 µM): 110%
- residual activity (BRSK1 (human); compound 10.0 µM): 90%
- residual activity (MAP2K2 (human); compound 1.0 µM): 81%
- residual activity (MAP2K2 (human); compound 10.0 µM): 75%
- residual activity (EEF2K (human); compound 1.0 µM): 100%
- residual activity (EEF2K (human); compound 10.0 µM): 101%
- residual activity (NEK6 (human); compound 1.0 µM): 98%
- residual activity (NEK6 (human); compound 10.0 µM): 94%
- residual activity (RPS6KA3 KD1 KD2 (human); compound 1.0 µM): 77%
- residual activity (RPS6KA3 KD1 KD2 (human); compound 10.0 µM): 44%
- residual activity (PLK1 (human); compound 1.0 µM): 90%
- residual activity (PLK1 (human); compound 10.0 µM): 24%
- residual activity (AURKA (human); compound 1.0 µM): 103%
- residual activity (AURKA (human); compound 10.0 µM): 78%
- residual activity (MAPK8 (human); compound 1.0 µM): 93%
- residual activity (MAPK8 (human); compound 10.0 µM): 77%
- residual activity (MAP3K1 (human); compound 1.0 µM): 99%
- residual activity (MAP3K1 (human); compound 10.0 µM): 51%
- residual activity (IKBKB (human); compound 1.0 µM): 94%
- residual activity (IKBKB (human); compound 10.0 µM): 64%
- residual activity (GSK3B (human); compound 1.0 µM): 38%
- residual activity (GSK3B (human); compound 10.0 µM): 10%
- residual activity (CSNK1D (human); compound 1.0 µM): 90%
- residual activity (CSNK1D (human); compound 10.0 µM): 59%
- residual activity ([2]; compound 1.0 µM): 93%
- residual activity ([2]; compound 10.0 µM): 90%
- residual activity (ERBB4 (human); compound 1.0 µM): 88%
- residual activity (ERBB4 (human); compound 10.0 µM): 73%
- residual activity (MAPKAPK3 (human); compound 1.0 µM): 82%
- residual activity (MAPKAPK3 (human); compound 10.0 µM): 87%
- residual activity ([3]; compound 1.0 µM): 80%
- residual activity ([3]; compound 10.0 µM): 59%
Structure (SMILES): NC(=O)c1ccc(-c2ccc(Oc3cncc4sc(-c5nn[nH]n5)cc34)cc2)cc1
- residual activity (MAPK15 (human); compound 1.0 µM): 85%
- residual activity (MAPK15 (human); compound 10.0 µM): 2%

— the kinase profiling compilation of Christmann-Franck et al. (2016)
